The source of these data is EP0575844B1, “Hydroxamic acid derivatives and pharmaceutical compositions thereof” (F. HOFFMANN-LA ROCHE AG, priority 1992, dated 1993).

The term IC50 denotes the point on the concentration scale where inhibition reaches its midpoint.

One experiment addresses gelatinase B (Homo sapiens, UniProt P14780). Briefly: biochemical. The procedure:
Pro-gelatinase B was purified from human neutrophils by first separating the neutrophils from human blood by density centrifugation and dextran sedimentation. The separated neutrophils were disrupted by combined treatment with 0.05% Triton X-100® and sonification Cell debris was then removed by high speed centrifugation. […] The gelatinase B was incubated overnight at 37°C with 1mM p-aminophenylmercuric acetate. The inhibitory activity of the present hydroxamine derivatives was determined using the synthetic substrate N-acetyl-Pro-Gln-Gly-Leu-Leu-Gly ethyl ester for this enzyme. The gelatinase was added to a solution of 0.25 mM of substrate in 50mM borate buffer (pH 7.5) containing 1 mM calcium chloride and a known concentration of hydroxylamine derivative. The resulting solution was incubated at 37°C for 16 hours. Enzymic activity was terminated by addition of an equal volume of 2% (w/v) sodium hydrogen carbonate solution in 50% aqueous methanol containing 0.05% (w/v) of picrylsulphonic acid. The solution obtained was incubated at 37°C for a further 1 hour and the reaction was then terminated and stabilized by acidification with 1N hydrochloric acid. The concentration of trinitrophenyl-Leu-Leu-Gly ethyl ester formed was determined by spectrophotometry at 335 nm. The IC50 is that concentration of hydroxylamine derivative which reduces substrate cleavage to 50% of that achieved by the enzyme alone.

Experiment [1] deals with T1, Stromelysin (Homo sapiens, UniProt P08254). The experiment is described as follows: biochemical. How it is done:
The latent pro-enzyme (30 µg/ml) was activated by incubation with trypsin (0.5 µg/ml) for 30 minutes at 25°C and then the trypsin was inactivated using a twenty-fold excess of trypsin inhibitor. The inhibitory activity of the hydroxamic acid derivatives was determined using the fluorescent peptide substrate (7-methoxycoumarin-4-yl)acetyl-L-prolyl-L-leucyl-L-alanyl-L-[…]-[3-(2,4-dinitrophenyl)-L-2,3-diaminopropyl]-L-arginyl-L-arginine. The stromelysin (final concentration 35 ng/ml) was added to a solution of substrate ([…]) and varying concentrations of hydroxylamine derivative in 50mM Tris HCl buffer, pH 7.5 containing 200 mM Na Cl, 10mM CaCl2, 0.05% Brij 35 and 5% methanol. This solution was incubated for 16 hours at 37°C. Product formation was determined by spectrofluorometry using an excitation wavelength of 325 nm and an emission wavelength of 395 nm. The IC50 is that concentration of hydroxylamine derivative which reduces the substrate cleavage to 50% of that achieved by the enzyme alone.

Experiment [2] addresses T1, Stromelysin. The experiment is described as follows: Stromelysin (Test A), 14C-acetylated b-casein substrate digestion. Format: biochemical. The following applies: read-out: Test A IC50 (mol). How it is done:
Prostromelysin was purified from human fibroblast culture medium by prostromelysin antibody affinity chromatography [Ganja-Smith Z, Nagase H, Woessner J F Jr., Biochem J. 1989, vol 285 (1), pp 115-119]. The latent pro-enzyme was activated by incubation with trypsin (5 mg/ml) at 25°C for 2 hours and after this time the trypsin was inactivated using a ten-fold excess of soya bean trypsin inhibitor. The inhibitory activity of the aforementioned hydroxamic acid derivatives was determined using ^14C-acetylated b-casein substrate. The stromelysin (5 nM) was added to a solution of substrate (4 mg/ml) in 25 mM Tris HCl buffer, pH 7.5, containing 10 mM CaCl2 and 0.05% Brij®. The solution obtained was incubated at 37°C for 20 hours. Enzyme digestion of the substrate was terminated by the addition of 45% trichloroacetic acid and the precipitated undigested substrate was pelleted by centrifugation at 10000 g for 0.25 hour. The supernatant was aspired and ^14C activity was determined by liquid scintillation spectrometry. The IC50 is that concentration of hydroxamic acid derivative in the enzyme digestion which reduces the substrate cleavage to 50% of that achieved by the enzyme alone.

The mark [3] stands for this setting: gelatinase B from human neutrophils, 0.25 mM substrate, pH 7.5, 37°C, 16 hours, * = IC50 limited by mutual depletion of the enzyme, read-out: Test C IC50 (mol).

Like-named read-outs stand apart in the source and are kept apart here.

gelatinase B, sequence (P14780 94-707): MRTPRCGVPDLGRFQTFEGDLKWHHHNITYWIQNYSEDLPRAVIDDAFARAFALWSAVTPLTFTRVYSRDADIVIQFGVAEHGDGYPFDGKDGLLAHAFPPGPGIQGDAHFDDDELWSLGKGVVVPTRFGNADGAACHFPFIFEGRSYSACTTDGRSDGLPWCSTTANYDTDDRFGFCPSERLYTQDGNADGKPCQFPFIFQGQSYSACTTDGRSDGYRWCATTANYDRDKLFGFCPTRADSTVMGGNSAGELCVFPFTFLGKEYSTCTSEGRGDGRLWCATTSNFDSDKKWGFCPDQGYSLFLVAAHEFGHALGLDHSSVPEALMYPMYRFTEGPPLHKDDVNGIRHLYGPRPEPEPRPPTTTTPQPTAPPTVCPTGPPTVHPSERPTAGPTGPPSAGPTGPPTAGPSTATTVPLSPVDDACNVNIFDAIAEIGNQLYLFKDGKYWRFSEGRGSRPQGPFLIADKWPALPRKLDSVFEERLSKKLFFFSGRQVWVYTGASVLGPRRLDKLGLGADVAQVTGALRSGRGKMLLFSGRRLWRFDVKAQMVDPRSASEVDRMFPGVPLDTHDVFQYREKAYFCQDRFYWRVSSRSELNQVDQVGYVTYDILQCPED
T1 sequence (P08254 100-477): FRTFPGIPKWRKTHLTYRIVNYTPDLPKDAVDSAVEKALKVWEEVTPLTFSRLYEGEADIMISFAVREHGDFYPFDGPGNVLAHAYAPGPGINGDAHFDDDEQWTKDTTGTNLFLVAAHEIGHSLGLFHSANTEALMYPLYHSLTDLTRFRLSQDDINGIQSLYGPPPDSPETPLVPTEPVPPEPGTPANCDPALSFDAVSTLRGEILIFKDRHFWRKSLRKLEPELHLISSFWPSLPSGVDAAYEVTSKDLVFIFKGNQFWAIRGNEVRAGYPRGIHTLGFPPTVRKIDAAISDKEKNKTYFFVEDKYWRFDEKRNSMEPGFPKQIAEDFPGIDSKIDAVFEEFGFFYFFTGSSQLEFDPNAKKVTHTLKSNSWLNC

Regarding `CCCCCCCC(CC(=O)NO)C(=O)N[C@@H](Cc1ccccc1)C(=O)NC` (stereo partly drawn) [Compound F, [4-(N-Hydroxyamino)-2(RS)-heptylsuccinyl]-L-phenylalanine methylamide], the IC50 on gelatinase B (setting [3]) stood at 3.2 nM; on Stromelysin [1], 22 nM.
`CCCCCCC[C@@H](C(=O)N[C@@H](CC(C)C)C(=O)N[C@@H](CC(C)C)C(=O)NCC)C(CN1C(=O)c2ccccc2C1=O)C(=O)NO` (single isomer, unassigned) [Compound D, [4-(N-Hydroxyamino)-2(R)-heptyl-3(R or S)-(phthalimidomethyl)succinyl]-L-leucyl-L-leucine ethylamide]: the 50% inhibitory concentration (IC50) was found to be 10 nM on Stromelysin [2] and 0.59 nM against Stromelysin [1].
`CCCCCCC[C@@H](C(=O)N[C@@H](CC(C)C)C(=O)N[C@@H](CC(C)C)C(=O)NCC)C(CCCc1ccccc1)C(=O)NO` (single isomer, unassigned) [Compound H, [4-(N-Hydroxyamino) 2(R)-heptyl-3(R or S)-(3-phenylpropyl)succinyl]-L-leucyl-L-leucine ethylamide] had an IC50 against Stromelysin [1] of 0.66 nM.
Take `CCCCCCCC(C(=O)N[C@@H](CC(C)C)C(=O)N[C@@H](CC(C)C)C(=O)NCC)[C@H](C)C(=O)NO` (single isomer, unassigned) [Compound C, [4-(N-Hydroxyamino)-2(R or S)-heptyl-3(S)-methylsuccinyl]-L-leucyl-L-leucine ethylamide]: the results for the IC50 on Stromelysin [2] and against Stromelysin [1] were 11 nM and 2.3 nM, respectively.
With `CCCCCCCCCC(CC(=O)NO)C(=O)N[C@@H](CC(C)C)C(=O)N[C@@H](CC(C)C)C(=O)NCC` (single isomer, unassigned) [Compound B, [4-(N-Hydroxyamino)-2(R or S)-nonylsuccinyl]-L-leucyl-L-leucine ethylamide], the IC50 at Stromelysin [2] came out at 26 nM; against gelatinase B it was 50 nM; at Stromelysin [1] it was 9.3 nM.
As for `CCCCCCC[C@@H](C(=O)N[C@H](C(=O)NC)C(C)(C)C)C(CN1C(=O)c2ccccc2C1=O)C(=O)NO` (single isomer, unassigned) [Compound G, [4-(N-Hydroxyamino)-2(R)-heptyl-3(R or S)-(phthalimidomethyl)succinyl]-L-tert-butylglycine methylamide], the IC50 at gelatinase B (setting [3]) is 0.9 nM; on Stromelysin [1] (stromelysin 35 ng/ml, fluorescent peptide substrate, pH 7.5, 37°C, 16 hours, * = IC50 limited by mutual depletion of the enzyme, read-out: Test B IC50 (mol)), 1.2 nM.
As for `CCCCCCCC(CC(=O)NO)C(=O)N[C@@H](CC(C)C)C(=O)N[C@@H](CC(C)C)C(=O)NCC` (single isomer, unassigned) [Compound A, [4-(N-Hydroxyamino)-2(R or S)-heptylsuccinyl]-L-leucyl-L-leucine ethylamide], the concentration for half-maximal inhibition (IC50) amounted to 33 nM at Stromelysin [2], 320 nM against gelatinase B and 12.5 nM against Stromelysin [1].
